{"source": "ChEMBL document CHEMBL1201862", "about": "“PubChem BioAssay data set” (2004)", "key": {"[1]": {"biological_target": "G-protein coupled receptor 55 (Homo sapiens, UniProt Q9Y2T6)", "sequence (Q9Y2T6 whole entry)": "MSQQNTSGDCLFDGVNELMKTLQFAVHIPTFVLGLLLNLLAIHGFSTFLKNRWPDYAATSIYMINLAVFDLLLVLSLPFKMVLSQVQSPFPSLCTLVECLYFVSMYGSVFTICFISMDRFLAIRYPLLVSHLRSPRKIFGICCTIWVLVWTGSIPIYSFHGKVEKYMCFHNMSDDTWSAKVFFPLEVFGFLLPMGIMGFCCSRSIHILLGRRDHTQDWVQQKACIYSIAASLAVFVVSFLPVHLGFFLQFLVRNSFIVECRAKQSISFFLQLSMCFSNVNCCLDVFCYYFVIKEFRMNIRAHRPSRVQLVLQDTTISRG", "assay": "blockers of GPR55 signalling, imaged – imaging, image-based, counter-screen for GPR35 antagonist project, SAR follow-up (AID 2397)", "assay_type": "functional"}, "[2]": {"biological_target": "T1, Tyrosine-protein phosphatase non-receptor type 22 (Homo sapiens, UniProt Q9Y2R2)", "T1 sequence (Q9Y2R2 whole entry)": "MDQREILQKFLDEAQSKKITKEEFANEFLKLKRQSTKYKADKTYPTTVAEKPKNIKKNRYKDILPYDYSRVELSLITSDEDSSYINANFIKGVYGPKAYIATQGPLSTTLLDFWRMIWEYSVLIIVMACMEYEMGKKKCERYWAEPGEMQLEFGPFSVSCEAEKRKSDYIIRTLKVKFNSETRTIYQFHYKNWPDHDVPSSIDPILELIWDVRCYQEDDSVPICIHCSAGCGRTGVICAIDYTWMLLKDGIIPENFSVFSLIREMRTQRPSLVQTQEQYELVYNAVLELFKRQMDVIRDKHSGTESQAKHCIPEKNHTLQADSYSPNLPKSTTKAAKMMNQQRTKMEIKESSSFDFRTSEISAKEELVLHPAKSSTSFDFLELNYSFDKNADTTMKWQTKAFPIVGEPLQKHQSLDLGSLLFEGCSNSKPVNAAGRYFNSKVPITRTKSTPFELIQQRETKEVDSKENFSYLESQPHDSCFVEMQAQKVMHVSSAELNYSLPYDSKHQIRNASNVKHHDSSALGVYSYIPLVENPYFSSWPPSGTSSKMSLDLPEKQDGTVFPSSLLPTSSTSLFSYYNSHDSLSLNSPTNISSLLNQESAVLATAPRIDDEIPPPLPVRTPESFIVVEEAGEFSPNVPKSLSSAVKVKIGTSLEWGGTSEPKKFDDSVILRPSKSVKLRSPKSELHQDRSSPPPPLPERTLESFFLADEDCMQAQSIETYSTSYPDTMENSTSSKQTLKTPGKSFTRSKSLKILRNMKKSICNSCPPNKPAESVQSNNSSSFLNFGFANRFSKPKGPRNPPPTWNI", "assay": "inhibition of lymphoid tyrosine phosphatase LYP – biochemical, pCAP fluorogenic substrate, fluorescence, set 3, SAR follow-up (AID 449727)", "assay_type": "functional"}, "[3]": {"biological_target": "T1, Tyrosine-protein phosphatase non-receptor type 22", "assay": "SAR LYP1 Fluorescent Assay using OMFP substrate for In Vitro dose response studies - Set 3. [Related pubchem assays (depositor defined):AID1779, AID1784, AID2140, AID2686]", "assay_type": "functional"}, "[4]": {"biological_target": "Tyrosine-protein phosphatase non-receptor type 12 (Homo sapiens, UniProt Q05209)", "sequence (Q05209 whole entry)": "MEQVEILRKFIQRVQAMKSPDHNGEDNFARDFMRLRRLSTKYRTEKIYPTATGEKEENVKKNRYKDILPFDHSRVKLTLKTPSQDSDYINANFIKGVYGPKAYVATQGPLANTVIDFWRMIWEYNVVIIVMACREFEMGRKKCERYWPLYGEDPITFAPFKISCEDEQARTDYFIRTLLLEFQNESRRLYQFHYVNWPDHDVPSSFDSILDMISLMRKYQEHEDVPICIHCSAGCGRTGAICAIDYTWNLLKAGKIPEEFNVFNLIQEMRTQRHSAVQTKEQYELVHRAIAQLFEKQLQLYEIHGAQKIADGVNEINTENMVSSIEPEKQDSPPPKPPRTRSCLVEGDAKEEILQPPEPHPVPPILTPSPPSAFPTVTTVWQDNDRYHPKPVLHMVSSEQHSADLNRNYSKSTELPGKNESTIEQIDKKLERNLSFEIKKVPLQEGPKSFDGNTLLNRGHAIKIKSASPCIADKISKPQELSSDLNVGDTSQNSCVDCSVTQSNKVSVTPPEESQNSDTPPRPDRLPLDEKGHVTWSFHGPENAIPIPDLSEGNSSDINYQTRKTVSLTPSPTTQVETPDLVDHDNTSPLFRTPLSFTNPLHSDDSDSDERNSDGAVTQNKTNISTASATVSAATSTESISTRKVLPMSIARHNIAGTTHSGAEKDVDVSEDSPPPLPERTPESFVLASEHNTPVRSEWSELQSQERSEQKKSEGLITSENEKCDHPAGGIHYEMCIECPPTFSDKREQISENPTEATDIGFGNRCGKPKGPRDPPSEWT", "assay": "SAR Selectivity Analysis of small molecule inhibitors of PEST using pCAP in a fluorescence assay. [Related pubchem assays (depositor defined):AID1779, AID1784, AID2135]", "assay_type": "functional"}, "[5]": {"biological_target": "T2, Tyrosine-protein phosphatase non-receptor type 7 (Homo sapiens, UniProt P35236)", "T2 sequence (P35236 whole entry)": "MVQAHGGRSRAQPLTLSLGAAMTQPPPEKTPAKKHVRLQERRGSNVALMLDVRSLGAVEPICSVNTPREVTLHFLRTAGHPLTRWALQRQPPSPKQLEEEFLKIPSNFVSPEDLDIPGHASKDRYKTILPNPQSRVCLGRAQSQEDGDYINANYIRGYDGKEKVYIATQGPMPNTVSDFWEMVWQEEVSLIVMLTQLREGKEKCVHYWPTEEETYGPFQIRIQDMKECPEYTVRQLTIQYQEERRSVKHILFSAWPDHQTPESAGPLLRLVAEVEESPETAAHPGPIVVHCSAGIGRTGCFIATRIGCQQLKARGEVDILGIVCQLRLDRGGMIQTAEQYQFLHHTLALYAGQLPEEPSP", "assay": "inhibition of hematopoietic tyrosine phosphatase HePTP – biochemical, set 2, SAR follow-up (AID 449736)", "assay_type": "functional"}, "[6]": {"biological_target": "G-protein coupled receptor 35 (Homo sapiens, UniProt Q9HC97)", "sequence (Q9HC97 whole entry)": "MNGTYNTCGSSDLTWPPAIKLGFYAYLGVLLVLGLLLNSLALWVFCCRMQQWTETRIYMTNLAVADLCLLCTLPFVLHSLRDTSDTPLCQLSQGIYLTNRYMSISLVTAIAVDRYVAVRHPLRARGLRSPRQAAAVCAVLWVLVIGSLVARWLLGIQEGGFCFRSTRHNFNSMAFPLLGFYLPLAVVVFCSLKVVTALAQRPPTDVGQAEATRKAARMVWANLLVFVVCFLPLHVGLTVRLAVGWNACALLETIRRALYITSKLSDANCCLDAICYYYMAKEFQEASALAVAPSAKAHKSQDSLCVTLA", "assay": "SAR Analysis for the identification of Selective Antagonists of ERK1/2 Activity in GPR35-Overexpressing U2OS Cells. [Related pubchem assays: 2079, 2058 ]", "assay_type": "functional, cell-based"}, "[7]": {"biological_target": "Voltage-dependent T-type calcium channel subunit alpha-1H (Homo sapiens, UniProt O95180)", "sequence (O95180 whole entry)": "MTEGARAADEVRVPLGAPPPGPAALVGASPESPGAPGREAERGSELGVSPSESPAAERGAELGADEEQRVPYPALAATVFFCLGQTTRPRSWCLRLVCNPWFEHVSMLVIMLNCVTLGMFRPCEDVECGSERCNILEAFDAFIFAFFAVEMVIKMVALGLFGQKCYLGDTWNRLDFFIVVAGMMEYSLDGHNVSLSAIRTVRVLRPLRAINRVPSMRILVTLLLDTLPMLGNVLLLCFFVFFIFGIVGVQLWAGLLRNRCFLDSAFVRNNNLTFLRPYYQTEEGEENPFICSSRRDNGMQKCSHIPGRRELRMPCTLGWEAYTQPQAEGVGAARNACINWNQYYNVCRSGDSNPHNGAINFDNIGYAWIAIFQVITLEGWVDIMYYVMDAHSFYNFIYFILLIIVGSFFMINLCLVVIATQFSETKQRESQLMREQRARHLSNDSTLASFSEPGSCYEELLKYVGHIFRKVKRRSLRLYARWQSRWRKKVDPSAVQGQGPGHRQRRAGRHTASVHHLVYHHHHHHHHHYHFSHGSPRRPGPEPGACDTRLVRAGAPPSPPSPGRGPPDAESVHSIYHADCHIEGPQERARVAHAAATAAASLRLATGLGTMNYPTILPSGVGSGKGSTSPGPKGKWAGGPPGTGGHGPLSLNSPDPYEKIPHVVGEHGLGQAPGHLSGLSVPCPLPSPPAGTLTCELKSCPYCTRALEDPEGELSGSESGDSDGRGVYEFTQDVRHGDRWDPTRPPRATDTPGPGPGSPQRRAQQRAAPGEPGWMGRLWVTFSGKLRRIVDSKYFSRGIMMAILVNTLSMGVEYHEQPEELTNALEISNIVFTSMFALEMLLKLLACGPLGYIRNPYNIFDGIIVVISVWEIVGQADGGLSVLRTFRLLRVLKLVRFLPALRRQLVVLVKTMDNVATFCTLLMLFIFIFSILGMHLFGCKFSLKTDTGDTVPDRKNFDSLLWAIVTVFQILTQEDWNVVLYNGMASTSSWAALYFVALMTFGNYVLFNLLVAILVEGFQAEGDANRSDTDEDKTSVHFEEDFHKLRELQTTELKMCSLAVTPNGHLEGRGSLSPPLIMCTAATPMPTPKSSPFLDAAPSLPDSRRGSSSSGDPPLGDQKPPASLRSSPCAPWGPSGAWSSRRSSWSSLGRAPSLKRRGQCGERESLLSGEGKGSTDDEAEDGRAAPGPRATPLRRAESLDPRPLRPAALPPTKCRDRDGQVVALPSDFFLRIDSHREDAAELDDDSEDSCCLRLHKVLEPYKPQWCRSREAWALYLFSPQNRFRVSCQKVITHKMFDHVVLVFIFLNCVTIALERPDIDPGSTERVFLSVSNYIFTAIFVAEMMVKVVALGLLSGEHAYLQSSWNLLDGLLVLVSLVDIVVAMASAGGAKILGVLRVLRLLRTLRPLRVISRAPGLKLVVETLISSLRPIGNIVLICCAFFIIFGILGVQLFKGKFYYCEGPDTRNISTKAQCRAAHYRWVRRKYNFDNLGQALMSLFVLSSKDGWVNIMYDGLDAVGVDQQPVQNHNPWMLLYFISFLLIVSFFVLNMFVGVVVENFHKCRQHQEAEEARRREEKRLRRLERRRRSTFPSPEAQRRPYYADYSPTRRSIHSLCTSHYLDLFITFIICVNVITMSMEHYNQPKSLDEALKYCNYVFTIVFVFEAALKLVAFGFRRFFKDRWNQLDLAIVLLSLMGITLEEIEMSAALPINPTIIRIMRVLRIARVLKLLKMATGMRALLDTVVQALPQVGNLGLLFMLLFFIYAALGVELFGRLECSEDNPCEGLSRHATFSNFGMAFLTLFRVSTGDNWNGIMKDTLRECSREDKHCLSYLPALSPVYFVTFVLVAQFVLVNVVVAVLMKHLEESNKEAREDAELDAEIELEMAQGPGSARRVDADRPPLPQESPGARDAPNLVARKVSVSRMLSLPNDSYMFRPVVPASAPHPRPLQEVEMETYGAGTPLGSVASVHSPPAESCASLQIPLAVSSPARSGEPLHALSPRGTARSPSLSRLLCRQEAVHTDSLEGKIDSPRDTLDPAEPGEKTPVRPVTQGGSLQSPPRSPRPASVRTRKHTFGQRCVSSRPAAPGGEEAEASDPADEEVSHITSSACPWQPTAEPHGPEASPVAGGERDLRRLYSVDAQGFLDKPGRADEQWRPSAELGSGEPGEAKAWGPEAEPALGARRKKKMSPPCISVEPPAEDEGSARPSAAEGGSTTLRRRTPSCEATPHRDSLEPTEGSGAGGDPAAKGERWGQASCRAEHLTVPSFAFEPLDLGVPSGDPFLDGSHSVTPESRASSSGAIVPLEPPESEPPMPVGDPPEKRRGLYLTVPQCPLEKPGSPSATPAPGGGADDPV", "assay": "inhibition of CACNA1H calcium flux – cell-based, SynthLib3 library, HEK293 Cav3.2, fluorescence (AID 493041)", "assay_type": "functional"}, "[8]": {"biological_target": "T3, Short transient receptor potential channel 4 (Mus musculus, UniProt Q9QUQ5)", "T3 sequence (Q9QUQ5 whole entry)": "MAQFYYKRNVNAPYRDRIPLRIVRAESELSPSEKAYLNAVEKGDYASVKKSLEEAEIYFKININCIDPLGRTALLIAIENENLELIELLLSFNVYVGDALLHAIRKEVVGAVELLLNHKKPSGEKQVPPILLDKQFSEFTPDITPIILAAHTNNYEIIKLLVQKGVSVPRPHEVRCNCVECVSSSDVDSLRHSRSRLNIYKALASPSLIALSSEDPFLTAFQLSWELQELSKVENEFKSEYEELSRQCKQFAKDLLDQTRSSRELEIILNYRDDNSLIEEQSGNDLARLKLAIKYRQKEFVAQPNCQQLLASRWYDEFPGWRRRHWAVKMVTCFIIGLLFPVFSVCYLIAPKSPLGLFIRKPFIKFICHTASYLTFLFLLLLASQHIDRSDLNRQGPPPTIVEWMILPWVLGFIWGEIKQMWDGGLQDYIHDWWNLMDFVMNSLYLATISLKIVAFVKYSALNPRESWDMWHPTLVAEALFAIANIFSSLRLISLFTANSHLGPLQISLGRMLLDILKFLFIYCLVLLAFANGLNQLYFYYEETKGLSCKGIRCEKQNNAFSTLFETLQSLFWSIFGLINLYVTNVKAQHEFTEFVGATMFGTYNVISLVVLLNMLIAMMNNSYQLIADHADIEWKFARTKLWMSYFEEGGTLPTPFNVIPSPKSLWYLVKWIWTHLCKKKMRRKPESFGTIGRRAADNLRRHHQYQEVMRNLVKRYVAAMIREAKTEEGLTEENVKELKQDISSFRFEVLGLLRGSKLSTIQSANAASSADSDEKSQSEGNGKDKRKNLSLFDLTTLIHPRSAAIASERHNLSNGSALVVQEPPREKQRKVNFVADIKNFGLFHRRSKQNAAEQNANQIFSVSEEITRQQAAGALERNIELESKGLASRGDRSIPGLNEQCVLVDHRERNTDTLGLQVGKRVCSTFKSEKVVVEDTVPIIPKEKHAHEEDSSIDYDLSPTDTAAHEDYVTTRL", "assay": "potency of mouse TRPC4 calcium flux blockers – cell-based, HEK293 TRPC4/mu-opioid, DAMGO stimulus, Fluo-4, dose response (AID 492994)", "assay_type": "functional"}, "[9]": {"biological_target": "T3, Short transient receptor potential channel 4", "assay": "SAR Analysis for the identification of selective inhibits of the transient receptor potential cation channel C4 (TRPC4): Automated Electrophysiology. [Related pubchem assays (depositor defined):AID2256]", "assay_type": "functional"}, "CAAX prenyl protease 1": {"biological_target": "CAAX prenyl protease 1 (Saccharomyces cerevisiae S288c, UniProt P47154)", "sequence (P47154 whole entry)": "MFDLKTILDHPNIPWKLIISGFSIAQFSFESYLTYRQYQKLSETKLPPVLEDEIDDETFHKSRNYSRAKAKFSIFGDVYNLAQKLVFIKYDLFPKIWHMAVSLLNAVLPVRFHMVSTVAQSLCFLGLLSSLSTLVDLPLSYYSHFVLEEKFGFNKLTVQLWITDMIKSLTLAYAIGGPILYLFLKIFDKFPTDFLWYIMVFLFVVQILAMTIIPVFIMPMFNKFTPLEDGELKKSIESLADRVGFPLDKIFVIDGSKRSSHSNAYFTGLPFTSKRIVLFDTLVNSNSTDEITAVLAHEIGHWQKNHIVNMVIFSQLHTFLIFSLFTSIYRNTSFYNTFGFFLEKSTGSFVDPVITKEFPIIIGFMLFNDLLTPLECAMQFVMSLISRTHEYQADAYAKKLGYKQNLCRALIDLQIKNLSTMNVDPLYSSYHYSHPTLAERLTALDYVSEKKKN", "assay": "yeast CAAX protease Ste24 inhibition – biochemical, S. cerevisiae, plate reader, cherry-pick, dose response (AID 488815)"}, "CAAX prenyl protease 2": {"biological_target": "T4, CAAX prenyl protease 2 (Homo sapiens, UniProt Q9Y256)", "T4 sequence (Q9Y256 whole entry)": "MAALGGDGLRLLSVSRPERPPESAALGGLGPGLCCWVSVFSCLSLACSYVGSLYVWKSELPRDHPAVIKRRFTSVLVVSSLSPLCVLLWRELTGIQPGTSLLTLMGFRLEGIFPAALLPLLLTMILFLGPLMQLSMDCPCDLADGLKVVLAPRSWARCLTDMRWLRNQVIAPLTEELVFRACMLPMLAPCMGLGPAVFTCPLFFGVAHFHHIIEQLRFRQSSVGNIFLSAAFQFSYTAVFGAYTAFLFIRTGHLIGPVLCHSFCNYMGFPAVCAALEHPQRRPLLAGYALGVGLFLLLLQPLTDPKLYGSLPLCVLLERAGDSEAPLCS", "assay": "inhibition of Ras-converting CAAX protease Rce1 – biochemical, yeast membranes, quenched-peptide fluorescence, cherry-pick, dose response (AID 588849)"}, "Trypsin": {"biological_target": "Trypsin (Sus scrofa, UniProt P00761)", "sequence (P00761 whole entry)": "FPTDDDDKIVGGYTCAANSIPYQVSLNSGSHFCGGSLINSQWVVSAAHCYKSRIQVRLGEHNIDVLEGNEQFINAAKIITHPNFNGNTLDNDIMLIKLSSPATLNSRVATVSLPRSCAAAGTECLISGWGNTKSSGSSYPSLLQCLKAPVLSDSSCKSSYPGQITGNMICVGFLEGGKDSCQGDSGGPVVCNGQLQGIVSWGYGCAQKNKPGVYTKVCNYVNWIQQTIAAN", "assay": "trypsin protease activity blockade – biochemical, quenched peptide fluorescence, cherry-pick, selectivity assay for Rce1 protease inhibitor project, dose response (AID 488789)"}}, "note": "Active and inactive are the calls of the source."}
{"smiles": "O=C(CCCN1C(=O)/C(=C/c2ccc3c(c2)OCO3)SC1=S)Nc1ccc(C(=O)O)c(O)c1", "values": [{"measurement": "IC50", "setting": "[1]", "value": "> 32 µM (inactive)"}, {"measurement": "IC50", "setting": "[2]", "value": "73.1 µM (active)"}, {"measurement": "IC50", "setting": "[3]", "value": "> 100 µM (inactive)"}, {"measurement": "IC50", "setting": "[4]", "value": "39.4 µM (active)"}, {"measurement": "IC50", "setting": "[5]", "value": "8.75 µM (active)"}, {"measurement": "IC50", "setting": "[6]", "value": "2.09 µM (active)"}]}
{"smiles": "CC(C)CCN1CCC[C@H](NC(=O)COc2ccc(F)c(Cl)c2)C1", "values": [{"measurement": "EC50", "setting": "[7]", "value": "10 µM (active)"}]}
{"smiles": "Cc1cc(N2CCOCC2)nc2ccccc12", "values": [{"measurement": "IC50", "setting": "[8]", "value": "39 µM (active)"}, {"measurement": "IC50", "setting": "[9]", "value": "140 µM (inactive)"}]}
{"smiles": "COc1ccc(OC)c(/C=N/NC(=O)CSc2cc(C)nc3c(OC)cccc23)c1", "values": [{"measurement": "AC50", "setting": "CAAX prenyl protease 1", "value": "6.88 µM (active)"}, {"measurement": "AC50", "setting": "CAAX prenyl protease 2", "value": "10.7 µM (active)"}, {"measurement": "AC50", "setting": "Trypsin", "value": "34.3 µM (active)"}]}
